The target in data set [1] is T1, cellular Top1 in MCF7 cells (Homo sapiens, UniProt P11387).
T1 construct: endogenous in cells; host or cells: MCF7 cells
T1 sequence (P11387 2-765 limits assumed): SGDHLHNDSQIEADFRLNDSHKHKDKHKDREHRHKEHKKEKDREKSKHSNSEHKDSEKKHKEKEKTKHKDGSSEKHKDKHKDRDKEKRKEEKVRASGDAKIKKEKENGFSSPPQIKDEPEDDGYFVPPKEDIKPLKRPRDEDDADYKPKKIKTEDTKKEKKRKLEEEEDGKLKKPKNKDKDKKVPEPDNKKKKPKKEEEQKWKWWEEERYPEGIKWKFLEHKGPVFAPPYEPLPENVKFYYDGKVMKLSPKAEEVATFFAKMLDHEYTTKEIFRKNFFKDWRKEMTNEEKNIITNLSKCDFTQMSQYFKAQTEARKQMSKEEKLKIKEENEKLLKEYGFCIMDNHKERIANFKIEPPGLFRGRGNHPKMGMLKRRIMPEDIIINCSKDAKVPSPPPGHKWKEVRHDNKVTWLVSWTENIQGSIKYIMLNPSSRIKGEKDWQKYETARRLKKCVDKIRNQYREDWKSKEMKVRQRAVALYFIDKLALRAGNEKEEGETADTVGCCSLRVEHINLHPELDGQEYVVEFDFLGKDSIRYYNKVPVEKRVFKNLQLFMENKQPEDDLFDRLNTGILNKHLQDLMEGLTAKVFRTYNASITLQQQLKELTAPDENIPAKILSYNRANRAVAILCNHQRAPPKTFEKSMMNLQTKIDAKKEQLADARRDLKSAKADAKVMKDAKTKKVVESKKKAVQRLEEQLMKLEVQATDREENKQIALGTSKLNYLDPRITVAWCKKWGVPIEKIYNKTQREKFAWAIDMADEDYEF
Nature of the data set: Western blot of Top1 in whole cell extracts of treated MCF7 cells. It is filed as cell-based. Conditions: 10 μM, indicated times. How it is done: Because compound 8 binds with free Top1 (Figure 3) and inhibits Top1cc formation in live cells (Figure 2E), we examined the impact of compound 8 on endogenous Top1. Cellular lysates were prepared from MCF7 cells treated with compound 8 for indicated times and were analyzed by Western blotting. […] Because proteasome has been implicated for Top1 degradation,[7],[9],[45] we used proteasome specific inhibitor (MG132) to investigate Top1 proteolysis in compound 8 treated cells.
Preparation of whole cell extracts from MCF7 cells and immunoblotting were carried out as described.[6],[40],[41] Immunoreactivity was detected using ECL chemiluminescence reaction (Amersham) under ChemiDoc MP system (Bio-Rad, USA).
(In western blotting, separated proteins are transferred to a membrane and probed.)

For data set [2], the system named is relaxed pBS (SK+) plasmid DNA. Nature of the data set: Topoisomerase I unwinding assay (DNA intercalation). The settings on record: m-AMSA and etoposide 50 and 300 μM; compound 8 50, 100, 300 μM. Here is the method: Therefore, compound 8 interacts in reversible manner with Top1 to inhibit the plasmid relaxation activity (Figure 1).
The competence of the drug to intercalate into plasmid DNA was determined by Top1 unwinding assay.[36],[44] Assays were performed with 50 fmol of pBluscript (SK+) DNA in the presence or absence of compound 8, m-AMSA, and etoposide at indicated concentrations. Excess of DNA topoisomerase I was reacted with supercoiled plasmid DNA to generate relaxed DNA for the unwinding assays. The relaxed DNA was purified by proteolytic digestion with proteinase K at 37 °C, followed by phenol/chloroform extraction and ethanol precipitation. The unwinding assays were carried out at 37 °C for 15 min with independent compounds and were analyzed by 1% agarose gel as described above.

Data set [3] addresses T2, Top1-DNA cleavage complexes (Top1cc) (Homo sapiens, UniProt P11387).
T2 construct: made in house; host or cells: Sf-9 insect cells (recombinant baculovirus, gift of Prof. James J. Champoux)
T2 sequence (P11387 1-765): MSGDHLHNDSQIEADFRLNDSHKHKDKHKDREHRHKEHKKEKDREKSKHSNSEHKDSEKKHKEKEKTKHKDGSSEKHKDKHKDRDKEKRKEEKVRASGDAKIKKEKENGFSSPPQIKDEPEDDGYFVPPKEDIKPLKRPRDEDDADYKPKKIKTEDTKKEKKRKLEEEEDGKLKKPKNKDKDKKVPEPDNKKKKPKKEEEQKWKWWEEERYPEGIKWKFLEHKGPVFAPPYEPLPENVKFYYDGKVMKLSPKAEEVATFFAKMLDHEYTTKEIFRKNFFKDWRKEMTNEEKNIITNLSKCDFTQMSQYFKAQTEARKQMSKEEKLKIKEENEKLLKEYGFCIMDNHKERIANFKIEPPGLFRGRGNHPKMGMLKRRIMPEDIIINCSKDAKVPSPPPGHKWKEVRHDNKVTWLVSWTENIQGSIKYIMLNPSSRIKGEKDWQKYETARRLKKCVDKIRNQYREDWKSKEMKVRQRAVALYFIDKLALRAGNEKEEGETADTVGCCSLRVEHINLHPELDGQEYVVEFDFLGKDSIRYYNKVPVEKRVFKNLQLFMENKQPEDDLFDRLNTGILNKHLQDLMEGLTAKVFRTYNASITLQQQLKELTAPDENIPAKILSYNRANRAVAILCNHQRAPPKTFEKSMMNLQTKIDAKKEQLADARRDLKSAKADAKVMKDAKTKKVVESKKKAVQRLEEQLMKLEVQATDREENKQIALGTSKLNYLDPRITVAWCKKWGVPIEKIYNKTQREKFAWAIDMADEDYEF
Nature of the data set: Single turnover equilibrium cleavage assay with 25-mer duplex oligonucleotide. It is filed as biochemical. Here is the method: Plasmid DNA cleavage assay was carried out as described previously.[6],[8] For equilibrium cleavage assays, 25-mer duplex of oligonucleotide containing a Top1 binding motif was labeled and annealed as described previously.[13],[36],[38] Samples were analyzed by 12% sequencing gel electrophoresis, dried, and exposed on PhosphorImager screens and imaged with Typhoon FLA 7000 (GE Healthcare, U.K.).

In data set [4] the test system is mouse embryonic fibroblasts (MEFs). Nature of the data set: Cell survival (MTT) assay, MEFs (TDP1+/+ and TDP1-/-). It is filed as cell-based. From the text:
(§1) Compound 8 was investigated for its cytotoxicity in the cancer cell lines from different tissue origin,[6],[41] as well as in the noncancerous human embryonic kidney cell lines (HEK293) and mouse embryonic fibroblasts (MEFs). […] The MCF7 breast cancer cell lines were most susceptible to compound 8.
(§2) Human cancerous cell lines like MCF7, HeLa, HCT116, NIH:OVCAR-3, and HEK293 were obtained from the Developmental Therapeutics Program as kind gift from Dr. Yves Pommier (NIH/NCI/USA). TDP1^+/+ and TDP1^–/– primary MEF cells were kind gift from Dr. Cornelius F. Boerkoel (University of British Columbia, Canada) and were cultured as described previously.[6],[36],[40],[42] Plasmid DNAs were transfected with Lipofectamine 2000 (Invitrogen) according to the manufacturer’s protocol.
(§3) Cell survival was assessed by 3-(4,5-dimethylthiazol-2-yl)-2,5-diphenyltetrazolium bromide (MTT) assay as discussed previously.[6] The percent inhibition of viability for each concentration of the compounds was calculated with respect to the control, and IC50 values were estimated.

Experiment in data set [5]: as above
The settings on record: mouse, read-out: IC50 cytotoxicity. It is filed as cell-based, mouse.
Excerpt: as §1, §2, §3

Each structure is given as a SMILES string. Where two headings read alike, the source gives them in different places.

This is an account of results in publication PMC5808360, “Neutral Porphyrin Derivative Exerts Anticancer Activity by Targeting Cellular Topoisomerase I (Top1) and Promotes Apoptotic Cell Death without Stabilizing Top1-DNA Cleavage Complexes” (Journal of Medicinal Chemistry, 2017).

For the compound `CN(C)c1ccc(-c2c3nc(c(-c4ccc(N(C)C)cc4)c4ccc([nH]4)c(-c4ccc(C(=O)O)cc4)c4nc(c(-c5ccc(C(=O)O)cc5)c5ccc2[nH]5)C=C4)C=C3)cc1` [Compound 8, 5,10-Bis(4-carboxyphenyl)-15,20-bis(4-dimethylaminophenyl)porphyrin], the “Top1 signal in Western blot” value in data set [1] is “time dependent depletion of Top1 signal”. Also, the “Negative supercoiling of relaxed plasmid DNA (intercalation)” value in data set [2] is on record as “failed to induce negative supercoiling of the relaxed plasmid DNA”. For the same compound, in data set [3] (25-mer duplex oligonucleotide, recombinant Top1 0.2 μM), the “Stabilization of Top1cc in single turnover equilibrium cleavage assay” value is listed as “failed to stabilize Top1cc”. For the same compound, the “Effect on CPT-induced Top1cc with 12-mer cleaved oligonucleotides” value in data set [3] (Top1 incubated with CPT before addition of compound) was “reversed the CPT-induced Top1cc”. Further, the “Sensitivity of TDP–/– versus TDP1+/+ MEFs cells” value in data set [4] was “equally sensitive”. Also, the IC50 in data set [5] (TDP1+/+ primary mouse embryonic fibroblasts (MEFs), TDP1+/+ MEFs) is above 10 µM; in data set [5] (TDP1-/- primary mouse embryonic fibroblasts (MEFs), TDP1-/- MEFs), above 10 µM; in data set [5] (mouse embryonic fibroblasts (MEFs), MEFs, noncancerous) it was above 10 µM.

Broadly, the IC50 is the concentration that inhibits the measured activity by half.
